Literature values, collected in patent US8293789B2, “Method of preparing a latanoprost opthalmic solution and the resulting solution” (priority 2004, dated 2012).

Legend:
[1] = not given; remark: listed apart in the source
[2] = tested on: patients with open angle glaucoma or ocular hypertension; conditions: for circadian / nocturnal reduction of intraocular pressure: day versus night

solubility in organic solvents (acetone, ethanol, ethyl acetate, isopropanol, methanol and octanol)	solubility in acetonitrile (acetonitrile)	solubility in water (water)	time to peak concentration in the aqueous humor ([1]; after local administration) [h]	plasmatic mid life ([1]; in humans, sentence follows statements on latanoprost acid) [min]	time to maximum concentration in the aqueous humor ([1]; studies on humans, following administration)	Compound	circadian / nocturnal reduction of intraocular pressure [2]	effectiveness of one sole daily application versus double daily application of other glaucoma agents ([2]; latanoprost 0.005%, patients with open angle glaucoma or ocular hypertension)	patients with a reduction in the intraocular pressure of at least 30% ([2]; patients treated with latanoprost, after 6 months of treatment) [%]	effectiveness as hypotensive agent compared with unoprostone ([2]; patients, versus unoprostone)
freely soluble	highly soluble	practically insoluble	2	17	approximately two	CC(C)OC(=O)CCC/C=C\C[C@@H]1[C@@H](CC[C@@H](O)CCc2ccccc2)[C@H](O)C[C@@H]1O [latanoprost, isopropilic ester of the prostaglandin F2α 17-phenyl-13,14dihydro]	more uniform circadian reduction	at least as effective	52	better results
						CCN[C@H]1C[C@H](C)S(=O)(=O)c2sc(S(N)(=O)=O)cc21 [Dorzolamide]	less effective than latanoprost			
						CC(C)(C)NC[C@H](O)COc1nsnc1N1CCOCC1 [timolol]	less effective during the night			
